Test results published in US20150087673A1, “METHODS FOR USING AND BIOMARKERS FOR AMPK-ACTIVATING COMPOUNDS” (RIGEL PHARMACEUTICALS, INC., priority 2013, published 2015).

Test system: AMPK
Assay: AMPK activation assay (enzyme-linked immunosorbent assay)
Format: cell-based
Outline: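 Activator screen performed per well-known kit methods.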

| Compound | EC50 [nM] |
| --- | --- |
| O=C(Nc1ccc(C(=O)N2CCN(Cc3ccc(F)cc3)CC2)cn1)c1ccc(Oc2ccc(F)cc2)nc1 [Compound 177, N-(5-(4-(4-fluorobenzyl)piperazine-1-carbonyl)pyridin-2-yl)-6-(4-fluorophenoxy)nicotinamide] | 1000 to 5000 |
| O=C(NC1CCN(Cc2ccc(F)cc2)CC1)c1ccc(C(=O)N2CCC(C(=O)c3ccc(F)cc3)CC2)cn1 [Compound 181, 5-(4-(4-fluorobenzoyl)piperidine-1-carbonyl)-N-(1-(4-fluorobenzyl)piperidin-4-yl)picolinamide] | < 500 |
| O=C(NC1CCN(Cc2ccc(F)cc2)CC1)c1ccc(C(=O)N2CC[C@H](Oc3ccc(F)cc3)C2)cn1 [Compound 182, (S)-N-(1-(4-fluorobenzyl)piperidin-4-yl)-5-(3-(4-fluorophenoxy)pyrrolidine-1-carbonyl)picolinamide] | < 500 |
| COc1ccc(O[C@H]2CC[C@@H](NC(=O)c3ccc(C(=O)N4CCC(C(=O)c5ccc(OC)cc5)CC4)cn3)CC2)cc1 [Compound 184, 5-(4-(4-methoxybenzoyl)piperidine-1-carbonyl)-N-((cis)-4-(4-methoxyphenoxy)cyclohexyl)picolinamide] | < 500 |
| O=C(c1ccc(N2CCC(Oc3ccc(C(F)(F)F)cc3)CC2)nc1)N1CCN(Cc2ccc(F)cc2)CC1 [Compound 187, (4-(4-fluorobenzyl)piperazin-1-yl)(6-(4-(4-(trifluoromethyl)phenoxy)piperidin-1-yl)pyridin-3-yl)methanone] | 1000 to 5000 |
| COc1ccc(C(=O)C2CCN(c3ccc(C(=O)N4CCN(Cc5ccc(F)cc5)CC4)cn3)CC2)cc1 [Compound 189, (4-(4-fluorobenzyl)piperazin-1-yl)(6-(4-(4-methoxybenzoyl)piperidin-1-yl)pyridin-3-yl)methanone] | 1000 to 5000 |
| COc1ccc(C(=O)C2CCN(C(=O)c3ccc(C(=O)N[C@H]4CC[C@@H](Oc5ccc(C(F)(F)F)cc5)CC4)nc3)CC2)cc1 [Compound 192, 5-(4-(4-methoxybenzoyl)piperidine-1-carbonyl)-N-((cis)-4-(4-(trifluoromethyl)phenoxy)cyclohexyl) picolinamide] | < 500 |
| COc1ccc(C(=O)C2CCN(C(=O)c3ccc(C(=O)NC4CCN(Cc5ccc(N6CCCC6)cc5)CC4)nc3)CC2)cc1 [Compound 194, 5-(4-(4-methoxybenzoyl)piperidine-1-carbonyl)-N-(1-(4-(pyrrolidin-1-yl)benzyl)piperidin-4-yl)picolinamide] | < 500 |
| O=C(NC1CCN(Cc2ccc(N3CCCC3)cc2)CC1)c1ccc(C(=O)N2CCC(Oc3ccc(F)cc3)CC2)cn1 [Compound 196, 5-(4-(4-fluorophenoxy)piperidine-1-carbonyl)-N-(1-(4-(pyrrolidin-1-yl)benzyl)piperidin-4-yl)picolinamide] | < 500 |
| COc1ccc(C(=O)C2CCN(C(=O)c3ccc(C(=O)N[C@H]4CC[C@@H](Oc5ccc(C#N)c(F)c5)CC4)nc3)CC2)cc1 [Compound 198, N-((cis)-4-(4-cyano-3-fluorophenoxy)cyclohexyl)-5-(4-(4-methoxybenzoyl)piperidine-1-carbonyl)picolinamide] | < 500 |

The remaining lines, values ahead:

| EC50 [nM] | Compound |
| --- | --- |
| < 500 | COc1ccc(C(=O)C2CCN(C(=O)c3ccc(C(=O)NC4CCN(Cc5ccc(F)cc5)CC4)nc3)CC2)cc1 [Compound 178, N-(1-(4-fluorobenzyl)piperidin-4-yl)-5-(4-(4-methoxybenzoyl)piperidine-1-carbonyl)picolinamide] |
| < 500 | O=C(NC1CCN(Cc2ccc(F)cc2)CC1)c1ccc(C(=O)N2CCC(Oc3ccc(C(F)(F)F)cc3)CC2)cn1 [Compound 179, N-(1-(4-fluorobenzyl)piperidin-4-yl)-5-(4-(4-(trifluoromethyl)phenoxy)piperidine-1-carbonyl)picolinamide] |
| < 500 | O=C(NC1CCN(Cc2ccc(F)cc2)CC1)c1ccc(C(=O)N2CCC(Oc3ccc(F)cc3)CC2)cn1 [Compound 180, N-(1-(4-fluorobenzyl)piperidin-4-yl)-5-(4-(4-fluorophenoxy)piperidine-1-carbonyl)picolinamide] |
| < 500 | COc1ccc(OC2CCN(C(=O)c3ccc(C(=O)NC4CCN(Cc5ccc(F)cc5)CC4)nc3)CC2)cc1 [Compound 183, N-(1-(4-fluorobenzyl)piperidin-4-yl)-5-(4-(4-methoxyphenoxy)piperidine-1-carbonyl)picolinamide] |
| < 500 | COc1ccc(O[C@H]2CC[C@@H](NC(=O)c3ccc(C(=O)N4CCC(Oc5ccc(C(F)(F)F)cc5)CC4)cn3)CC2)cc1 [Compound 185, N-((cis)-4-(4-methoxyphenoxy)cyclohexyl)-5-(4-(4-(trifluoromethyl)phenoxy)piperidine-1-carbonyl)picolinamide] |
| < 500 | COc1ccc(OC2CCN(C(=O)c3ccc(C(=O)N[C@H]4CC[C@@H](Oc5ccc(OC)cc5)CC4)nc3)CC2)cc1 [Compound 186, N-((cis)-4-(4-methoxyphenoxy)cyclohexyl)-5-(4-(4-methoxyphenoxy)piperidine-1-carbonyl)picolinamide] |
| 500 to 1000 | N#Cc1ccc(OC2CCN(c3ccc(C(=O)N4CCN(Cc5ccc(F)cc5)CC4)cn3)CC2)cc1 [Compound 188, 4-(1-(5-(4-(4-fluorobenzyl)piperazine-1-carbonyl)pyridin-2-yl)piperidin-4-yloxy)benzonitrile] |
| < 500 | N#Cc1ccc(O[C@H]2CC[C@@H](NC(=O)c3ccc(C(=O)N4CCC(Oc5ccc(C(F)(F)F)cc5)CC4)cn3)CC2)cc1 [Compound 190, N-((cis)-4-(4-cyanophenoxy)cyclohexyl)-5-(4-(4-(trifluoromethyl)phenoxy)piperidine-1-carbonyl)picolinamide] |
| < 500 | COc1ccc(OC2CCN(C(=O)c3ccc(C(=O)N[C@H]4CC[C@@H](Oc5ccc(C(F)(F)F)cc5)CC4)nc3)CC2)cc1 [Compound 191, 5-(4-(4-methoxyphenoxy)piperidine-1-carbonyl)-N-((cis)-4-(4-(trifluoromethyl)phenoxy)cyclohexyl) picolinamide] |
| < 500 | N#Cc1ccc(OC2CCN(C(=O)c3ccc(C(=O)N[C@H]4CC[C@@H](Oc5ccc(C(F)(F)F)cc5)CC4)nc3)CC2)cc1 [Compound 193, 5-(4-(4-cyanophenoxy)piperidine-1-carbonyl)-N-((cis)-4-(4-(trifluoromethyl)phenoxy)cyclohexyl) picolinamide] |
| < 500 | COc1ccc(OC2CCN(C(=O)c3ccc(C(=O)NC4CCN(Cc5ccc(N6CCCC6)cc5)CC4)nc3)CC2)cc1 [Compound 195, 5-(4-(4-methoxyphenoxy)piperidine-1-carbonyl)-N-(1-(4-(pyrrolidin-1-yl)benzyl)piperidin-4-yl)picolinamide] |
| < 500 | N#Cc1ccc(OC2CCN(C(=O)c3ccc(C(=O)NC4CCN(Cc5ccc(N6CCCC6)cc5)CC4)nc3)CC2)cc1 [Compound 197, 5-(4-(4-cyanophenoxy)piperidine-1-carbonyl)-N-(1-(4-(pyrrolidin-1-yl)benzyl)piperidin-4-yl)picolinamide] |
| < 500 | N#Cc1ccc(O[C@H]2CC[C@@H](NC(=O)c3ccc(C(=O)N4CCC(Oc5ccc(C(F)(F)F)cc5)CC4)cn3)CC2)cc1F [Compound 199, N-((cis)-4-(4-cyano-3-fluorophenoxy)cyclohexyl)-5-(4-(4-(trifluoromethyl)phenoxy)piperidine-1-carbonyl)picolinamide] |
